Experiments:
[1] = test system: monocyte-derived dendritic cells; assay: Surface expression of phenotypic markers on monocyte-derived dendritic cells (immunofluorescence, flow cytometry); type: cell-based, human
Description: Purified monocytes (>85% monocytes)(1.5.10^6/flask)(Corning Costar, High Wycombe, UK) were incubated in 5 ml of tissue culture medium (TCM)(RPMI 1640 medium (Sigma, Poole, UK) supplemented with 10% heat-inactivated foetal calf serum (FCS)(Life Technologies, Paisley, UK). iDC were generated using granulocyte macrophage—colony stimulating factor (GM-CSF) (1000 U/ml)(Novartis Research Institute, Vienna, Austria) and IL-4 (500 U/ml) (R&D Systems, Oxford, UK). Monocytes were cultured for 3 or 7 days with cytokines, either alone or in the presence of rhuBiP (20 μg/ml). Mature DC were generated by addition of 500 ng/ml lipopolysaccharide (LPS) for the final 2 days of culture.
Immunofluorescent staining was performed as follows when required. Cells were suspended in immunofluorescent buffer (IF) (PBS/0.1% BSA/0.05% azide) washed and incubated for 10 mins on ice with normal human serum. After washing twice in IF buffer, saturating concentrations of fluorescein isothiocyanate (FITC)-, phycoerythrin (PE) or peridium chlorophyll (Per-CP)-conjugated monoclonal antibodies (mAb) recognizing human CD14, CD86, CD80, HLA-DR, CD11c, CD1a, CD83, CD40 and CD85j, (all from Becton Dickinson/PharMingen, Oxford, UK) were added singly or in combination, as stated in the text, to cells for 20 mins on ice. Cells were then washed twice in IF buffer and analysed. Isotype controls, IgG1 and IgG2a (Becton Dickinson, Oxford, UK) were used in parallel.
Purified monocytes were cultured with and without BiP for three days (early DC/early DC(BiP)) or 7 days with GM-CSF and IL-4 (iDC/iDC(BiP)) or for 7 days with additional LPS for the final 2 days (mDC/mDC(BiP)). *BiP [20 μg/ml] was added at the same time as the cytokines. (a) and (b): Results are expressed as mean and standard error (mean ±SE) of the % positive cells from 4 or 7 different experiments, respectively.
Table A: Surface expression of phenotypic markers: Purified monocytes were differentiated into immature dendritic cells (iDC) with GM-CSF and IL-4 for 7d in the presence or absence of BiP (20 μg/ml). LPS (500 ng/ml) was added for the final 2d to give mature DC(mDC). Cell surface expression of molecules was measured by immunofluorescence and flow cytometry. Results are expressed as mean and standard deviation (mean ±SD) of the mean fluorescent intensity (MFI) from 7 different experiments:
Purified MO (>85% monocytes)(1.5.106/flask)(Corning Costar, High Wycombe, UK) were incubated in 5 ml of tissue culture medium (TCM)(RPMI 1640 medium (Sigma, Poole, UK) supplemented with 10% heat-inactivated foetal calf serum (FCS)(Life Technologies, Paisley, UK). iDC were generated by culturing MO with granulocyte macrophage-colony stimulating factor (GM-CSF) (1000 U/ml)(Novartis Research Institute, Vienna, Austria) and IL-4 (500 U/ml) (R&D Systems, Oxford, UK) for 3 or 7d, either alone or in the presence of rhuBiP (20 μg/ml). Cytokines and BiP were replenished every 2d. Mature DC were generated by addition of LPS (500 ng/ml) for the final 2d of a 7d culture.
Immunofluorescent staining was performed, as described previously (39), on DC harvested at day 7, T cells after 4 days co-culture with DC. Saturating concentrations of fluorescein isothiocyanate (FITC)-, phycoerythrin (PE) or peridium chlorophyll (Per-CP)-conjugated mAb were added recognizing CD14, CD86, CD80, HLA-DR, CD11c, CD1a, CD83, CD85j, IL-10 receptor; purity of the negatively selected MO and T cells was checked using CD3, CD4, CD14, CD20 and CD57 (all from Becton Dickinson/PharMingen (BD), Oxford, UK). Intracellular staining was carried out following fixation of cells with 1% paraformaldehyde for 5 minutes. Cells were then washed with immunofluorescence buffer (PBS/0.1% BSA/0.05% azide) containing 0.3% saponin. 0.3% saponin was then present in all solutions thereafter. CD152/CTLA-4 (BD, Oxford UK) and IDO (Santa Cruz, Autogen Bioclear, UK) were intracellular stains. Isotype controls, IgG1 and IgG2a (BD, Oxford, UK) were used in parallel. […]

[2] = test system: IL-8; assay: IL-8 in supernatants of PBMC from rheumatoid arthritis patients (MSD multicytokine array); type: cell-based, human; settings: PBMC of RA patients on methotrexate, BiP 20 μg/ml, 96 h, 16 paired samples, p=0.0001
Description: Peripheral blood mononuclear cells (PBMC) were separated from heparinised blood taken from patients with rheumatoid arthritis being treated with methotrexate. PBMC were either left unstimulated or stimulated with BiP (20 μg/ml). Supernatants were taken at 96 h, aliquoted and stored at −80° C. until required.
Supernatants from unstimulated or BiP stimulated cultures were analysed in a multicytokine array (MSD). The results from 16 paired samples are shown as median and 95 percent confidence limits.

[3] = Early iDC(BiP): 3 days GM-CSF and IL-4, BiP 20 μg/ml, mean ±SE
[4] = iDC(BiP): 7 days GM-CSF and IL-4, BiP 20 μg/ml, mean ±SE
[5] = mDC(BiP), BiP 20 μg/ml, mean fluorescence intensity, up to 7 experiments
[6] = mDC(BiP): 7 days GM-CSF and IL-4, LPS final 2 days, BiP 20 μg/ml, mean ±SE

BiP: 78 kD endoplasmic reticulum chaperone protein as disclosed in WO 00/21995; recombinant human protein
% cells CD1a+ [1, 3]: 1 ± 2%
% cells CD11c+ [1, 3]: 81 ± 7%
% cells CD80+ [1, 3]: 36 ± 15%
% cells CD83 [1, 3]: 2. ± 2%
% cells CD86+ [1, 3]: 3 ± 1%
% cells HLA-DR [1, 3]: 31 ± 7%
% cells CD14 ([1]; Early iDC(BiP): monocytes 3 days with GM-CSF and IL-4, BiP 20 μg/ml, mean ±SE): 91 ± 6%
MFI CD11c ([1]; iDC(BiP), BiP 20 μg/ml, mean fluorescence intensity, up to 7 experiments): 2246 ± 329
% positive cells CD40+85j+ ([1]; iDC(BiP): 7 days GM-CSF and IL-4, BiP 20 μg/ml): 26±19%
% positive cells CD1a+ [1, 4]: 83 ± 9%
% positive cells CD11c+ [1, 4]: 97 ± 2%
% positive cells CD14+ [1, 4]: 59 ± 22%
% positive cells CD40+ [1, 4]: 28 ± 20%
% positive cells CD80+ [1, 4]: 88 ± 7%
% positive cells CD83+ [1, 4]: 10 ± 5%
% positive cells CD86+ [1, 4]: 31 ± 11%
% positive cells CD210+ [1, 4]: 12 ± 9%
% positive cells HLA-DR+ [1, 4]: 96 ± 2%
maturation as determined by upregulation of CD83 after addition of LPS ([1]; mDC(BiP) (FIG. 10C)): failed to mature
CD40 expression by mDC(BiP) ([1]; mDC(BiP) versus mDC): no difference in CD40 expression
MFI CD1a [1, 5]: 685 ± 145
MFI CD14 [1, 5]: 366 ± 216
MFI CD80 [1, 5]: 395 ± 31
MFI CD86 [1, 5]: 112 ± 14
MFI HLA-DR [1, 5]: 1660 ± 167
cell surface expression of CD85j (ILT2) ([1]; mDC(BiP), n=4): 87.2±3.5%
% positive cells CD1a+ [1, 6]: 76 ± 14%
% positive cells CD11c+ [1, 6]: 94 ± 5%
% positive cells CD14+ [1, 6]: 57 ± 22%
% positive cells CD40+ [1, 6]: 32 ± 24%
% positive cells CD40+85j+ [1, 6]: 29 ± 23%
% positive cells CD80+ [1, 6]: 91 ± 6%
% positive cells CD83+ [1, 6]: 10 ± 4%
% positive cells CD86+ [1, 6]: 26 ± 9%
% positive cells CD210+ [1, 6]: 19 ± 17%
% positive cells HLA-DR+ [1, 6]: 96 ± 1%
CD14 and CD86 expression on DC cultured in the presence of BiP ([1]; mature DC, dose-dependent 0.5-20 μg/ml BiP (FIG. 10B)): sustained CD14 expression and failed to upregulate CD86
IL-8 production [2]: significantly less IL-8

— patent US20080155704A1, “Methods and Compositions for Determining in vivo Activity of BiP” (King's College London, priority 2006, published 2008)
